In patent US9085603B2, “Progesterone receptor antagonists” (Bayer Intellectual Property GmbH, priority 2010, dated 2015):

Key:
[1] = molecular target: T1, human progesterone receptor A (Homo sapiens, UniProt P06401); assay: Progesterone receptor antagonistic effect in stably transfected SK-N-MC cells, MTV-LUC reporter (PR-A); assay type: cell-based; conditions: antagonism of 0.1 nmol/l promegestone, luciferase reporter, 24 hours
T1 construct: expressed in transfected cells; host or cells: SK-N-MC human neuroblastoma cells, stably transfected with pRChPR-A-neo and pMMTV-LUC
T1 sequence (P06401 1-769 isoform P06401-2): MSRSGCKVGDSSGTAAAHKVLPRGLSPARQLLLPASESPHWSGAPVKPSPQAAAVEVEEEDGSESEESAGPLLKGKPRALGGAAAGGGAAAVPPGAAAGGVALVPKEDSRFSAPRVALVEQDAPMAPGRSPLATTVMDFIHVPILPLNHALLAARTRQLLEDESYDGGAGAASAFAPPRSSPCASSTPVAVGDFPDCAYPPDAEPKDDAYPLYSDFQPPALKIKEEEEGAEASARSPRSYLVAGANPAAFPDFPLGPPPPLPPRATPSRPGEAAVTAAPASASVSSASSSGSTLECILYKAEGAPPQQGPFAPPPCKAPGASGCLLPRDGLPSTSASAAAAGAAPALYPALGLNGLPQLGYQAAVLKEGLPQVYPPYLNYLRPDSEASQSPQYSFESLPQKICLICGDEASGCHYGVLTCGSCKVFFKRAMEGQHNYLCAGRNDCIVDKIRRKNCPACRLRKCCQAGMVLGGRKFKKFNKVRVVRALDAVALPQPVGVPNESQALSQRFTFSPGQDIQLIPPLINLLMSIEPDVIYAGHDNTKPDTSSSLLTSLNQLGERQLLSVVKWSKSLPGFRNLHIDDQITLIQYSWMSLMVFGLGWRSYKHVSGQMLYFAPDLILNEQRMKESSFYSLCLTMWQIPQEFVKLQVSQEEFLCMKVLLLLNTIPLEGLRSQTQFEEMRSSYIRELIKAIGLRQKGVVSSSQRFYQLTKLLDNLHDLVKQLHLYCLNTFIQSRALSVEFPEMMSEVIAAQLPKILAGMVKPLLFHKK
Outline: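 Stably transfected SK-N-MC cells with PR-A or PR-B and MMTV-LUC reporter, treated 24 h with 0.1 nmol/l promegestone plus test compound at 0.01 nmol/l–1 μmol/l. Luciferase in cell lysates read as RLU; values given as percentage efficacy and IC50.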

pregnant rats = assay: Abortive test on female rats (termination of early pregnancy); assay type: in vivo, rat; conditions: for Abortion rate: d5-d7 p.c., autopsy d9 p.c.
Procedure: The antagonistic effect of the compounds according to the invention was tested on pregnant rats (6 rats per group) on day (d) 5 to 7 post coitum (p.c.) under conventional keeping and feeding conditions.
After successful pairing, the pregnant animals (presence of sperm in the vaginal smear on day 1 of the pregnancy=d1 p.c.) were randomized and divided into the treatment group and the control group. The animals were then given, subcutaneously or orally, in each case 0.15; 0.5; 1.5 or 5 mg/kg of the test compound or […] of vehicle (benzyl benzoate/ricinus oil: 1+4 [v/v]) daily from day 5 to day 7 (d5-d7 p.c.).
The autopsy was carried out on day 9 (d9 p.c.). As the parameter of the progesterone receptor antagonistic effect, the uterus was investigated with regard to the presence of nidation sites. Here, the complete lack of nidation sites, but also the presence of pathological, haemmorhagic or otherwise abnormal nidation sites, on day 9 (d9 p.c.) was evaluated as an abortion.

[2] = molecular target: T2, human progesterone receptor B (Homo sapiens, UniProt P06401); assay: Progesterone receptor antagonistic effect in stably transfected SK-N-MC cells, MTV-LUC reporter (PR-B); assay type: cell-based; conditions: antagonism of 0.1 nmol/l promegestone, luciferase reporter, 24 hours
T2 construct: expressed in transfected cells; host or cells: SK-N-MC human neuroblastoma cells, stably transfected with pRChPR-B-neo and pMMTV-LUC
T2 sequence (P06401 1-933): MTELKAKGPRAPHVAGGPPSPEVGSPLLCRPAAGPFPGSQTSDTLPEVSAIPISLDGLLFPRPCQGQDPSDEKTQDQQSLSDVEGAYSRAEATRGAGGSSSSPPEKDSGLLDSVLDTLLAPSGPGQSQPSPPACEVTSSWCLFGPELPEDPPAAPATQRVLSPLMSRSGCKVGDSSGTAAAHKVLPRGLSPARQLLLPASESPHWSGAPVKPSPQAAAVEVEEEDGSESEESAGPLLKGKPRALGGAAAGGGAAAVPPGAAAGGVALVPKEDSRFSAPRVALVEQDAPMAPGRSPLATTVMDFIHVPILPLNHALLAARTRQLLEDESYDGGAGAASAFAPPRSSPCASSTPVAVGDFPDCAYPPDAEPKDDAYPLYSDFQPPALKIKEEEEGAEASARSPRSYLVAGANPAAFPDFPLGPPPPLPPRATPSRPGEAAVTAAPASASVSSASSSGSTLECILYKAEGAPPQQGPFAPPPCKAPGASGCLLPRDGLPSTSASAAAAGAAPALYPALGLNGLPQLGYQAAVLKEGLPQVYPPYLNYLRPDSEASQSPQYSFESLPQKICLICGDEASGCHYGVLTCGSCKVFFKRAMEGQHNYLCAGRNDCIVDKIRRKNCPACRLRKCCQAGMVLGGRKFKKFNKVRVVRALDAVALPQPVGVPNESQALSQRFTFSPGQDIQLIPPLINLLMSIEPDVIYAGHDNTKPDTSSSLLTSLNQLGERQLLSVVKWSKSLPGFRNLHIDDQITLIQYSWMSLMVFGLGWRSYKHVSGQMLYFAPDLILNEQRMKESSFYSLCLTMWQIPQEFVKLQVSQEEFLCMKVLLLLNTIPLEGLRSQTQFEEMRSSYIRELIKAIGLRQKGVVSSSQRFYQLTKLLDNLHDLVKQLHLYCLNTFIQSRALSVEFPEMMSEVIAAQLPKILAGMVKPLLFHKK
Procedure: Progesterone Receptor Antagonistic Effect in Stable Transfectants of Human Neuroblastoma Cells (SK-N-MC cells) with the Human Progesterone A or Progesterone B Receptor and a MTV-LUC Reporter Construct
SK-N-MC cells (human neuroblastoma cells), which have been stably transfected with plasmids which express the human progesterone receptor B (pRChPR-B-neo) or the human progesterone receptor A (pRChPR-A-neo) and a reporter construct (pMMTV-LUC), were incubated for 24 hours either in the absence (negative control) or in the presence of increasing amounts of the particular test compound (0.01 nmol/l, 0.1 nmol/l, 1 nmol/l, 10 nmol/l, 100 nmol/l and 1 μmol/l) in order to determine the agonistic efficacy. As a positive control of the reporter gene induction, the cells were treated with the synthetic gestagen promegestone (0.01 nmol/l, 0.1 nmol/l, 1 nmol/l, 10 nmol/l, 100 nmol/l and 1 μmol/l). To determine the antagonistic activity, the cells were treated with 0.1 nmol/l of promegestone and additionally with increasing amounts of the particular test compound (0.01 nmol/l, 0.1 nmol/l, 1 nmol/l, 10 nmol/l, 100 nmol/l and 1 μmol/l). The activity of the reporter gene LUC (LUC=luciferase) was determined in the cell lysates and measured as RLU (relative light units). All measurement values are given as percentage efficacy and as EC50 or IC50 concentrations.

[3] = cited from earlier work
uterus fibroids = conditions: several clinical studies; cited from earlier work

With C[C@]12C[C@H](c3ccc(CN4CCN(S(C)(=O)=O)CC4)cc3)C3=C4CCC(=O)C=C4CC[C@H]3[C@@H]1CC[C@@]2(O)C(F)(F)C(F)(F)F [Example 12, (11β,17β)-17-Hydroxy-11-(4-{[4-(methylsulphonyl)piperazin-1-yl]methyl}phenyl)-17-(pentafluoroethyl)estra-4,9-dien-3-one] the IC50 [1] was 0.17 nM, the Abortion rate (pregnant rats; daily dose 0.5 mg/kg p.o.) was 100% and the Abortion rate (pregnant rats; daily dose 1.5 mg/kg p.o.) was 100%. The Abortion rate (pregnant rats; daily dose 5.0 mg/kg p.o.) was 100%, the “In vivo properties in preclinical tests” value (pregnant rats; preclinical tests, not further specified) was “exceptional in vivo properties” and the IC50 [2] was 0.1 nM.
In the case of CN(C)c1ccc([C@H]2C[C@]3(C)[C@@H](CC[C@]3(O)CCCO)[C@@H]3CCC4=CC(=O)CCC4=C32)cc1 [Onapristone, onapristone], the Liver function tests ([3]; clinical studies, some patients) is given as “abnormalities in liver function tests were observed”.
In the case of CC#C[C@]1(O)CC[C@H]2[C@@H]3CCC4=CC(=O)CCC4=C3[C@@H](c3ccc(N(C)C)cc3)C[C@@]21C [mifepristone], the “Effect on uterus fibroids” value (uterus fibroids) is given as “significant shrinkage of uterus fibroids” and the “Symptoms associated with uterus fibroids” value (uterus fibroids) is given as “significant reduction in the symptoms”.
For COCC(=O)[C@@]1(OC(C)=O)CC[C@H]2[C@@H]3CCC4=CC(=O)CCC4=C3[C@@H](c3ccc(N(C)C)cc3)C[C@@]21C [proellex], the Liver enzymes ([3]; relatively high dosages) is listed as “induction of liver enzymes”, the “Effect on uterus fibroids” value (uterus fibroids) is listed as “significant shrinkage of uterus fibroids” and the “Symptoms associated with uterus fibroids” value (uterus fibroids) is listed as “significant reduction in the symptoms”.
